Reference: ChEMBL document CHEMBL1909542, “Synthesis and acrosin inhibitory activity of substituted 4-amino-N-(diaminomethylene) benzenesulfonamide derivatives” (Bioorg Med Chem Lett, 2011)

Target: Acrosin (Homo sapiens, UniProt P10323)
Assay: Inhibition of acrosin activity in human spermatozoa using N-alpha-benzoyl-DL-arginine para-nitroanilide-HCI as a substrate after 3 hrs by spectrophotometric analysis

Chain of Acrosin (P10323 20-42 limits assumed): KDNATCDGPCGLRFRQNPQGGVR
Chain of Acrosin (P10323 43-343 limits assumed): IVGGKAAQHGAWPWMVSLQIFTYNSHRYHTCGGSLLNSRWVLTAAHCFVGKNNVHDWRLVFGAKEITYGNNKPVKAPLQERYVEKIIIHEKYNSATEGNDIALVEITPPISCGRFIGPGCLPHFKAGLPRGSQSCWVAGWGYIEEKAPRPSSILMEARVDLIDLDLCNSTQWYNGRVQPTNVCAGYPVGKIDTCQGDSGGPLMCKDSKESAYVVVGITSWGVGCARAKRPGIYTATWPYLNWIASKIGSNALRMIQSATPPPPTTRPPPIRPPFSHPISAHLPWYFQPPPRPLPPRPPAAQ

Row | Compound | IC50 [mM]
1 | COc1ccc(C(=O)Nc2ccc(S(=O)(=O)N=C(N)N)cc2)cc1 | 2.21
2 | Cc1ccc(C(=O)Nc2ccc(S(=O)(=O)N=C(N)N)cc2)cc1 | 2.06
3 | NC(N)=NS(=O)(=O)c1ccc(NC(=O)c2ccccc2Cl)cc1 | 6.3
4 | NC(N)=NS(=O)(=O)c1ccc(NC(=O)c2ccc(Cl)c(Cl)c2)cc1 | 3.8
5 | NC(N)=NS(=O)(=O)c1ccc(NC(=O)c2ccc(F)cc2)cc1 | 7.11
6 | Cc1cc(C)c(C(=O)Nc2ccc(S(=O)(=O)N=C(N)N)cc2)c(C)c1 | 2.45
7 | NC(N)=NS(=O)(=O)c1ccc(NC(=O)c2cc([N+](=O)[O-])cc([N+](=O)[O-])c2)cc1 | 2.5
8 | CCC(=O)Nc1ccc(S(=O)(=O)N=C(N)N)cc1 | 9
9 | CC1CCN(CC(=O)Nc2ccc(S(=O)(=O)N=C(N)N)cc2)CC1 | 4.98
10 | CCCOC(=O)C1CCN(CC(=O)Nc2ccc(S(=O)(=O)N=C(N)N)cc2)CC1 | 3.31
11 | CCCCOC(=O)C1CCN(CC(=O)Nc2ccc(S(=O)(=O)N=C(N)N)cc2)CC1 | 9.5
12 | NC(N)=NS(=O)(=O)c1ccc(NC(=O)COc2ccccc2)cc1 | 2.3
13 | Cc1ccccc1OCC(=O)Nc1ccc(S(=O)(=O)N=C(N)N)cc1 | 9.3
14 | Cc1cccc(OCC(=O)Nc2ccc(S(=O)(=O)N=C(N)N)cc2)c1 | 8.92
15 | Cc1ccc(OCC(=O)Nc2ccc(S(=O)(=O)N=C(N)N)cc2)cc1 | 8.98
16 | NC(N)=NS(=O)(=O)c1ccc(NC(=O)COc2ccc(Cl)cc2)cc1 | 9.35
17 | COc1ccc(OCC(=O)Nc2ccc(S(=O)(=O)N=C(N)N)cc2)cc1 | 9.84

Next, values leading:

Row | IC50 [mM] | Compound
18 | 7 | NC(N)=NS(=O)(=O)c1ccc(NC(=O)c2cccc(Cl)c2)cc1
19 | 5.63 | NC(N)=NS(=O)(=O)c1ccc(NC(=O)c2ccc(Cl)cc2Cl)cc1
20 | 5.96 | NC(N)=NS(=O)(=O)c1ccc(NC(=O)c2c(Cl)cccc2Cl)cc1
21 | 7.63 | NC(N)=NS(=O)(=O)c1ccc(NC(=O)c2ccccc2Br)cc1
22 | 7.18 | NC(N)=NS(=O)(=O)c1ccc(NC(=O)c2c(F)cccc2F)cc1
23 | 3.84 | NC(N)=NS(=O)(=O)c1ccc(NC(=O)c2ccc(CCl)cc2)cc1
24 | 7.05 | NC(N)=NS(=O)(=O)c1ccc(NC(=O)c2cccc(C(F)(F)F)c2)cc1
25 | 0.21 | CCc1ccc(C(=O)Nc2ccc(S(=O)(=O)N=C(N)N)cc2)cc1
26 | 0.13 | CCOc1ccc(C(=O)Nc2ccc(S(=O)(=O)N=C(N)N)cc2)cc1
27 | 9.58 | CCCC(=O)Nc1ccc(S(=O)(=O)N=C(N)N)cc1
28 | 1.58 | CCCCC(=O)Nc1ccc(S(=O)(=O)N=C(N)N)cc1
29 | 7.41 | NC(N)=NS(=O)(=O)c1ccc(NC(=O)CN2CCCCC2)cc1
30 | 9.9 | CC1CCCCN1CC(=O)Nc1ccc(S(=O)(=O)N=C(N)N)cc1 (stereo unspecified)
31 | 9.3 | COC(=O)C1CCN(CC(=O)Nc2ccc(S(=O)(=O)N=C(N)N)cc2)CC1
32 | 2.99 | CCOC(=O)C1CCN(CC(=O)Nc2ccc(S(=O)(=O)N=C(N)N)cc2)CC1
33 | 2.35 | CC(C)OC(=O)C1CCN(CC(=O)Nc2ccc(S(=O)(=O)N=C(N)N)cc2)CC1
34 | 2.51 | CC(C)CCOC(=O)C1CCN(CC(=O)Nc2ccc(S(=O)(=O)N=C(N)N)cc2)CC1
35 | 4.2 | NC(N)=NS(=O)(=O)c1ccc(NC(=O)COc2ccc([N+](=O)[O-])cc2)cc1
36 | 0.027 | COC(=O)c1ccc(OC(=O)c2ccc(NC(=N)N)cc2)cc1.CS(=O)(=O)O
